{"source": "paper PMC4950319", "about": "“Kinetic and structural characterization of amyloid‐β peptide hydrolysis by human angiotensin‐1‐converting enzyme” (The Febs Journal, 2016)", "key": {"[1]": {"tested_on": "CC‐sACE", "sequence (P12821 643-1222 limits assumed)": "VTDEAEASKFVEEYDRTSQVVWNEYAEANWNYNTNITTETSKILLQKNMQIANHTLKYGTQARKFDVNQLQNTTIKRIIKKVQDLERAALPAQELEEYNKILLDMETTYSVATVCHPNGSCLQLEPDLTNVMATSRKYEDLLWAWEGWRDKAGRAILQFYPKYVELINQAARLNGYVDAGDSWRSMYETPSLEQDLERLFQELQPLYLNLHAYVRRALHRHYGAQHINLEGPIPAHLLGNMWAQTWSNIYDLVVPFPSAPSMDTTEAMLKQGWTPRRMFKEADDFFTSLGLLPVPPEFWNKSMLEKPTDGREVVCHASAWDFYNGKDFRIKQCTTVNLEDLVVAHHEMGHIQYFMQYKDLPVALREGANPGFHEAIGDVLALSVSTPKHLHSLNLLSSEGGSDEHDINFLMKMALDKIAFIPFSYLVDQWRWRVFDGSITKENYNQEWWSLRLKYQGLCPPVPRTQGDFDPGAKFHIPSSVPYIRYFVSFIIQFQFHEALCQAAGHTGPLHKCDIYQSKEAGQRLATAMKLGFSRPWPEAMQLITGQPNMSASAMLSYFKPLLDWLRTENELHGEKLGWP", "assay": "Interdomain cooperativity of two C‐domains", "format": "biochemical, human", "conditions": "catalytic ability per active site versus individual domains", "description": "(§1) An alternative fluorogenic peptide, Abz‐FRHDSG‐(NT) (BIOPEP™ South Africa) was assayed, with 100 μL enzyme and 100 μL substrate (at a final enzyme concentration within 10% hydrolysis of total substrate; see Table 3) as above, in 96‐well plates. The samples were read at the 5 min time point on a Cary Eclipse spectrofluorimeter (Varian Inc.) at λex = 320 nm and λem = 420 nm. Kinetic constants, inner filter effect and standard curves were calculated as above."}, "[2]": {"molecular_target": "T1, N‐sACE (Homo sapiens, UniProt P12821, H988K/H992K)", "T1 construct": "Both constructs have the complete signal, transmembrane and stalk region corresponding to full‐length sACE; made in house; host or cells: CHO cells; purified from cell lysate", "T1 sequence (P12821 30-1306 H988K/H992K)": "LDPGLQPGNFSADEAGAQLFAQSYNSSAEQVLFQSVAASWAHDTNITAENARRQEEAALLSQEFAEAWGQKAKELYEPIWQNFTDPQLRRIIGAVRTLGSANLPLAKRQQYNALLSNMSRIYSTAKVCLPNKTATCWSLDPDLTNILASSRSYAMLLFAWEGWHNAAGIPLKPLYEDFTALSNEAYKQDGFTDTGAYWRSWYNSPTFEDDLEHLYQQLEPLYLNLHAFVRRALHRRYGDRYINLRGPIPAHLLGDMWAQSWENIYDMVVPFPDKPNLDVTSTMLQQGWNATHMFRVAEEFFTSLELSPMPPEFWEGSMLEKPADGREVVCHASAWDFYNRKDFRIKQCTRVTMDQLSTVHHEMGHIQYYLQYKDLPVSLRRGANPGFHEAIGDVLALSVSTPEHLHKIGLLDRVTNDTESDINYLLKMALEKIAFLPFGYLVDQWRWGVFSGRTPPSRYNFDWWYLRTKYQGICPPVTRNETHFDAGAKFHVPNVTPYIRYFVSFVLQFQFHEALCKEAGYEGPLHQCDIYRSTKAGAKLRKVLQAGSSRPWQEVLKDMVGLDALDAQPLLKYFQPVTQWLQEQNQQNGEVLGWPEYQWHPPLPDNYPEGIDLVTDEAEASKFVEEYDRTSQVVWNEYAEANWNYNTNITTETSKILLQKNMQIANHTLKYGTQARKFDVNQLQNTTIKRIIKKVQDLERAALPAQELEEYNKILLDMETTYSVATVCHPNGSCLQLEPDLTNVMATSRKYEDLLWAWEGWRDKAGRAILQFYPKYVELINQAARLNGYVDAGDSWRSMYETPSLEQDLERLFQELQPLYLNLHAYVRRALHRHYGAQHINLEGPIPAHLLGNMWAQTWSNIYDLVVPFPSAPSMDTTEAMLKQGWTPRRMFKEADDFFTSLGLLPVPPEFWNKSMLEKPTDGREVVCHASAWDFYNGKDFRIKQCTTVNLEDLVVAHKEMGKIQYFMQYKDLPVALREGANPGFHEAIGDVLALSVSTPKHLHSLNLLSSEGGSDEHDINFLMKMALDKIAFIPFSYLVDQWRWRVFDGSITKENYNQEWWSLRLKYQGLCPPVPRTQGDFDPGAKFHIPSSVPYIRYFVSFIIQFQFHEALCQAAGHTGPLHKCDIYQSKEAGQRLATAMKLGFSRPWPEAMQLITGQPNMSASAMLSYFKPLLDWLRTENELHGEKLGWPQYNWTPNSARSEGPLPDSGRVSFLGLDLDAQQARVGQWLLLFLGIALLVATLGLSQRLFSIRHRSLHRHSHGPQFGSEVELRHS", "assay": "Aβ(4–10)Y hydrolysis by N‐sACE, fluorogenic assay", "format": "biochemical", "conditions": "fluorescence λex 320 nm, λem 420 nm, Hepes pH 7.5 buffer as for Aβ(4–10)Q, 5 min time point, enzyme 0.113 pmol, n = 3", "source_text": "(§2) Fluorogenic substrates designed around the established N‐terminal Asp7‐Ser8 cleavage site of the full‐length Aβ(1–42) were used to develop a higher throughput assay. There are two variations of the short fluorogenic peptides: Aβ(4–10)Q (Abz‐FRHDSG(Q)‐EDDnp) which has an N‐terminal Abz donor and a C‐terminal EDDnp quencher group attached to an additional Gln residue. The second peptide, Aβ(4–10)Y (Abz‐FRHDSG‐(NT)) has a different quencher molecule, NT, which substitutes for the naturally occurring Tyr residue.\nas §1\n(§3) Statistical analysis of the data was determined by Student's t test. Differences with P < 0.05 were considered statistically significant. Fractional error was calculated for the k cat/K m ratio with the following equation: ΔZ=ZΔa/a^2+Δb/b^2 where Z represents the mean k cat/K m and ΔZ represents the fractional error. The Δa represents the SEM of the mean k cat (a). Similarly, Δb represents the SEM of the mean K m (b)."}, "[3]": {"tested_on": "CC‐sACE", "assay": "Aβ(4–10)Y hydrolysis by CC‐sACE, fluorogenic assay", "format": "biochemical, human", "conditions": "fluorescence λex 320 nm, λem 420 nm, Hepes pH 7.5 buffer as for Aβ(4–10)Q, 5 min time point, enzyme 0.071 pmol, n = 3", "source_text": "as §2, §1, §3"}, "[4]": {"molecular_target": "T2, Cdom (soluble form of the C‐domain of sACE) (Homo sapiens, UniProt P12821)", "T2 construct": "lacks the transmembrane region and unique 36 amino acid N terminus (and is therefore identical to the sACE C‐domain); made in house; host or cells: CHO cells", "T2 sequence (P12821 643-1222 limits assumed)": "as the sequence (P12821 643-1222 limits assumed) above", "assay": "Aβ(4–10)Y hydrolysis by Cdom, fluorogenic assay", "format": "biochemical", "conditions": "fluorescence λex 320 nm, λem 420 nm, Hepes pH 7.5 buffer as for Aβ(4–10)Q, 5 min time point, enzyme 0.835 pmol, n = 3", "source_text": "as §2, §1, §3"}, "[5]": {"molecular_target": "T3, sACE (Homo sapiens, UniProt P12821)", "T3 construct": "made in house; host or cells: CHO cells; purified from cell lysate", "T3 sequence (P12821 30-1306)": "as the sequence (P12821 30-1306 H988K/H992K) above, with K959H, K963H counted along it", "assay": "Interdomain cooperativity in hydrolysis of Aβ substrates", "format": "biochemical", "description": "Mixtures were separated on a Poroshell 120 EC‐18 column with a 2.7 μm pore size. The reaction consists of 25 μL substrate incubated with 25 μL enzyme for 15 min at 37 °C and was stopped with the addition of 10 μL of 0.25% trifluoroacetic acid (TFA). The total reaction (60 μL) was cleared of contaminants on a spin column (GHP Nanosep® MF Centrifugal Device 0.45 μm pore size) and run on the HPLC. Kinetic parameters were determined through the fitting of initial rates to the Michaelis–Menten equation with […] PRISM software (v 4.01, GraphPad Prism®).\nThe reaction was incubated for 15 min at 37 °C and stopped with the addition of 10 μL 0.25% TFA to make up a total volume of 60 μL. The reactions were performed in triplicate and 50 μL injections were analysed via HPLC (Agilent Technologies) across a gradient of 0.1% TFA and 2% ACN in water to 0.1% TFA, 95% ACN. A calibration curve was set up to convert the product peak area to picomoles product formed, through the complete hydrolysis of the substrate with the N‐domain. […] Kinetic constants were calculated using the Michaelis–Menten method using […] […]\nThe assay is a modified form of the continuous assay 7 where the assay is set up on ice in triplicate in a 96‐well plate. The baseline fluorescence was at time zero and then the substrate was incubated at 37 °C and fluorescence read at the 45 min time point on a Cary Eclipse spectrofluorimeter (Varian Inc.) at λex = 320 nm and λem = 420 nm. Again, kinetic constants were calculated using the Michaelis–Menten method with […] […] The detected fluorescence was converted to picamoles product formed through the slope of a calibration curve of Abz‐Gly. […]\nas §1"}, "[6]": {"molecular_target": "T4, C‐sACE (Homo sapiens, UniProt P12821, H390K/H394K)", "T4 construct": "Both constructs have the complete signal, transmembrane and stalk region corresponding to full‐length sACE; made in house; host or cells: CHO cells; purified from cell lysate", "T4 sequence (P12821 30-1306 H390K/H394K)": "as the sequence (P12821 30-1306 H988K/H992K) above, with H361K, H365K, K959H, K963H counted along it", "assay": "Aβ(4–10)Y hydrolysis by C‐sACE, fluorogenic assay", "format": "biochemical", "source_text": "as §2, §1, §3"}, "[7]": {"molecular_target": "T5, Ndom (soluble form of the N‐domain of sACE) (Homo sapiens, UniProt P12821)", "T5 construct": "made in house; host or cells: CHO cells", "T5 sequence (P12821 30-658)": "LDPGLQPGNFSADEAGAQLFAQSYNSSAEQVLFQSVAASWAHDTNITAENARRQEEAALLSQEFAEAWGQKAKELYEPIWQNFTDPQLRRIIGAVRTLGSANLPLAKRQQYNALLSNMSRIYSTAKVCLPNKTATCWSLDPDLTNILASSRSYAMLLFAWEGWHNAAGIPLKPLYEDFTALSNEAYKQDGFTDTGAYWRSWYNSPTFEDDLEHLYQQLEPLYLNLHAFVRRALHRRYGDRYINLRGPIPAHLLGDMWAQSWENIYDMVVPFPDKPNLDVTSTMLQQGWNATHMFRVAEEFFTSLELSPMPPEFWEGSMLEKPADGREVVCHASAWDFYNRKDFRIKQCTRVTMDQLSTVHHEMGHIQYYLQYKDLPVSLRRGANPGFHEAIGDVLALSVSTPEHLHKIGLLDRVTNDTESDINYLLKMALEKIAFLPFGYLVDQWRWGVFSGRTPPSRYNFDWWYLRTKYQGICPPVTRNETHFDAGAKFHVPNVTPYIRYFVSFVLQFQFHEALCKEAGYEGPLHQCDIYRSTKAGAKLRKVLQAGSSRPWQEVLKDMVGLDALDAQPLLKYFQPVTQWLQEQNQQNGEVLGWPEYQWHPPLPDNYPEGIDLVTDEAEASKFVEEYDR", "assay": "Aβ(4–10)Y hydrolysis by Ndom, fluorogenic assay", "format": "biochemical", "source_text": "as §2, §1, §3"}, "[8]": {"tested_on": "ACE variants", "assay": "Cleavage‐site analysis by MALDI‐TOF MS, kinetic assay conditions", "format": "biochemical, human", "conditions": "MALDI‐TOF MS of products within kinetic assay conditions; Aβ(1–16): all ACE variants except Cdom; Aβ(4–10) peptides: Cdom and CC‐sACE not analysed", "description": "The mass spectrometry was analysed at the Centre for Proteomic and Genomic Research (Cape Town, South Africa). Briefly, the collected peptides were spotted onto a 10 mg·mL^−1 α‐cyano‐4‐hydroxycinnamic acid matrix (Fluka, USA) in 80% ACN, 0.2% TFA for a final concentration of 5 mg·mL^−1 matrix in 40% ACN, 0.1% TFA, 10 mM NH4H2PO4. Mass spectrometry was performed with a 4800 MALDI‐TOF/TOF (Applied Biosytems) with all spectra recorded in positive reflector mode. Spectra were generated with 400 laser shots/spectrum at a laser intensity of 3800 (arbitrary units) with a grid voltage of 16 kV."}, "[9]": {"conditions": "mean ± fractional error of the ratio"}, "[10]": {"conditions": "fluorescence λex 320 nm, λem 420 nm, Hepes pH 7.5 buffer as for Aβ(4–10)Q, 5 min time point, enzyme 0.226 pmol, mean ± SEM, n = 3"}, "[11]": {"conditions": "fluorescence λex 320 nm, λem 420 nm, Hepes pH 7.5 buffer as for Aβ(4–10)Q, 5 min time point, enzyme 0.228 pmol, mean ± SEM, n = 3"}}, "note": "Values joined by “and” are separate entries in the source; they are usually repeats but may differ in a detail not shown here. Equal values may be shown once. “Also recorded” adds a separate entry of the source."}
{"substance": "Abz‐FRHDSG‐(NT) [Aβ(4–10)Y, fluorogenic Aβ(4–10) peptide with NT quencher substituting for Tyr]", "values": [{"measurement": "cooperativity between the two C‐domains of CC‐sACE", "setting": "[1]", "value": "no cooperativity; also recorded: an additive effect between the two C‐domains"}, {"measurement": "K m", "setting": "[2]; mean ± SEM", "value": "8.56 ± 0.83", "unit": "µM"}, {"measurement": "V max", "setting": "[2]; mean ± SEM", "value": "0.44 ± 0.01"}, {"measurement": "k cat", "setting": "[2]; mean ± SEM", "value": "3.87 ± 0.09", "unit": "s⁻¹"}, {"measurement": "k cat/K m", "setting": "[2]; [9]", "value": "4.61 ± 0.46", "unit": "M^−1·s^−1 × 10^5"}, {"measurement": "K m", "setting": "[3]; mean ± SEM", "value": "20.30 ± 2.55", "unit": "µM"}, {"measurement": "V max", "setting": "[3]; mean ± SEM", "value": "0.90 ± 0.08"}, {"measurement": "k cat", "setting": "[3]; mean ± SEM", "value": "12.70 ± 1.16", "unit": "s⁻¹"}, {"measurement": "k cat/K m", "setting": "[3]; [9]", "value": "6.33 ± 0.98", "unit": "M^−1·s^−1 × 10^5"}, {"measurement": "K m", "setting": "[4]; mean ± SEM", "value": "27.23 ± 9.52", "unit": "µM"}, {"measurement": "V max", "setting": "[4]; mean ± SEM", "value": "4.45 ± 0.63"}, {"measurement": "k cat", "setting": "[4]; mean ± SEM", "value": "5.33 ± 0.76", "unit": "s⁻¹"}, {"measurement": "k cat/K m", "setting": "[4]; [9]", "value": "2.30 ± 0.87", "unit": "M^−1·s^−1 × 10^5"}, {"measurement": "interdomain cooperativity, full‐length constructs", "setting": "[5]; examination of the N‐sACE and C‐sACE constructs", "value": "positive domain cooperativity; also recorded: a positive form of cooperativity"}, {"measurement": "interdomain cooperativity, truncated domains taken into account", "setting": "[5]; truncated domains versus sACE", "value": "a negative effect on the activity of sACE"}, {"measurement": "C‐sACE K m, fold larger than its active N‐domain counterpart", "setting": "[6]; C‐sACE versus active N‐domain counterpart, P < 0.05", "value": 2, "unit": "fold"}, {"measurement": "K m", "setting": "[6]; [10]", "value": "38.10 ± 0.10", "unit": "µM"}, {"measurement": "V max", "setting": "[6]; [10]", "value": "1.57 ± 0.09"}, {"measurement": "k cat", "setting": "[6]; [10]", "value": "6.95 ± 1.39", "unit": "s⁻¹"}, {"measurement": "k cat/K m", "setting": "[6]; fluorescence λex 320 nm, λem 420 nm, Hepes pH 7.5 buffer as for Aβ(4–10)Q, 5 min time point, enzyme 0.226 pmol, mean ± fractional error of the ratio, n = 3", "value": "1.83 ± 0.18", "unit": "M^−1·s^−1 × 10^5"}, {"measurement": "catalytic efficiency by Ndom relative to Aβ(1–16)", "setting": "[7]; […] 10^5 versus […] 10^5 M^−1·s^−1", "value": "half the catalytic efficiency"}, {"measurement": "K m", "setting": "[7]; [11]", "value": "21.20 ± 0.31", "unit": "µM"}, {"measurement": "V max", "setting": "[7]; [11]", "value": "4.62 ± 0.14"}, {"measurement": "k cat", "setting": "[7]; [11]", "value": "20.30 ± 0.62", "unit": "s⁻¹"}, {"measurement": "k cat/K m", "setting": "[7]; fluorescence λex 320 nm, λem 420 nm, Hepes pH 7.5 buffer as for Aβ(4–10)Q, 5 min time point, enzyme 0.228 pmol, mean ± fractional error of the ratio, n = 3", "value": "9.57 M^−1·s^−1 × 10^5 and 9.57 ± 0.33 M^−1·s^−1 × 10^5"}, {"measurement": "cleavage site (bond)", "setting": "[8]", "value": "Asp7‐Ser8"}]}
